Measurements reported in ChEMBL document CHEMBL3045943, “Novel N-aryl(alkaryl)-2-[(3-R-2-oxo-2H-[1,2,4]triazino[2,3-c]quinazoline-6-yl)thio]acetamides: synthesis, cytotoxicity, anticancer activity, COMPARE analysis and docking” (2013).

Legend:
Type in all cases: functional
[1] = test system: Photobacterium leiognathi; assay: Growth inhibition of Photobacterium leiognathi Sh1 assessed as bio-luminescence at 0.25 mg/ml after 10 min by acute action test relative to control; parameters: scale not given: the % may be the effect or the level left
[2] = test system: Photobacterium leiognathi; assay: Growth inhibition of Photobacterium leiognathi Sh1 assessed as bio-luminescence at 0.1 mg/ml after 10 min by acute action test relative to control; parameters: scale not given: the % may be the effect or the level left
[3] = test system: U-251; assay: Cytotoxicity against Homo sapiens (human) U251 cells assessed as cell growth at 10 uM after 48 hr by SRB assay relative to control; details: U-251, 48 h, read-out: Activity
[4] = test system: Photobacterium leiognathi; assay: Growth inhibition of Photobacterium leiognathi Sh1 assessed as bio-luminescence at 0.1 mg/ml after 16 to 18 hr by chronic action test relative to control; parameters: scale not given: the % may be the effect or the level left
[5] = test system: Photobacterium leiognathi; assay: Growth inhibition of Photobacterium leiognathi Sh1 assessed as bio-luminescence at 0.025 mg/ml after 10 min by acute action test relative to control; parameters: scale not given: the % may be the effect or the level left
[6] = test system: SNB-19; assay: Cytotoxicity against Homo sapiens (human) SNB19 cells assessed as cell growth at 10 uM after 48 hr by SRB assay relative to control; details: SNB-19, 48 h, read-out: Activity
[7] = test system: Photobacterium leiognathi; assay: Growth inhibition of Photobacterium leiognathi Sh1 assessed as bio-luminescence at 0.025 mg/ml after 16 to 18 hr by chronic action test relative to control; parameters: scale not given: the % may be the effect or the level left
[8] = test system: Photobacterium leiognathi; assay: Growth inhibition of Photobacterium leiognathi Sh1 assessed as bio-luminescence at 0.25 mg/ml after 16 to 18 hr by chronic action test relative to control; parameters: scale not given: the % may be the effect or the level left
[9] = test system: SNB-75; assay: Cytotoxicity against Homo sapiens (human) SNB75 cells assessed as cell growth at 10 uM after 48 hr by SRB assay relative to control; details: SNB-75, 48 h, read-out: Activity

COc1ccc(-c2nn3c(SCC(=O)Nc4ccc(C)cc4)nc4ccccc4c3nc2=O)cc1
Activity [1]: 146.7%
Activity [2]: 120%
growth at 10 µM [3]: 24.4%
Activity [4]: 76.8%
Activity [5]: 112.5%
growth at 10 µM [6]: 59%
Activity [7]: 69.8%
Activity [8]: 27.3%
growth at 10 µM [9]: 55.9%
